Consider nine molecules from patent US7528138B2, “Pyrazolo[1,5-a]pyrimidines useful as inhibitors of protein kinases” (Vertex Pharmaceuticals Incorporated, priority 2004, dated 2009).

For experiment [1], the target named is T1, JAK3 (Homo sapiens, UniProt P52333).
T1 sequence (P52333 1-1124): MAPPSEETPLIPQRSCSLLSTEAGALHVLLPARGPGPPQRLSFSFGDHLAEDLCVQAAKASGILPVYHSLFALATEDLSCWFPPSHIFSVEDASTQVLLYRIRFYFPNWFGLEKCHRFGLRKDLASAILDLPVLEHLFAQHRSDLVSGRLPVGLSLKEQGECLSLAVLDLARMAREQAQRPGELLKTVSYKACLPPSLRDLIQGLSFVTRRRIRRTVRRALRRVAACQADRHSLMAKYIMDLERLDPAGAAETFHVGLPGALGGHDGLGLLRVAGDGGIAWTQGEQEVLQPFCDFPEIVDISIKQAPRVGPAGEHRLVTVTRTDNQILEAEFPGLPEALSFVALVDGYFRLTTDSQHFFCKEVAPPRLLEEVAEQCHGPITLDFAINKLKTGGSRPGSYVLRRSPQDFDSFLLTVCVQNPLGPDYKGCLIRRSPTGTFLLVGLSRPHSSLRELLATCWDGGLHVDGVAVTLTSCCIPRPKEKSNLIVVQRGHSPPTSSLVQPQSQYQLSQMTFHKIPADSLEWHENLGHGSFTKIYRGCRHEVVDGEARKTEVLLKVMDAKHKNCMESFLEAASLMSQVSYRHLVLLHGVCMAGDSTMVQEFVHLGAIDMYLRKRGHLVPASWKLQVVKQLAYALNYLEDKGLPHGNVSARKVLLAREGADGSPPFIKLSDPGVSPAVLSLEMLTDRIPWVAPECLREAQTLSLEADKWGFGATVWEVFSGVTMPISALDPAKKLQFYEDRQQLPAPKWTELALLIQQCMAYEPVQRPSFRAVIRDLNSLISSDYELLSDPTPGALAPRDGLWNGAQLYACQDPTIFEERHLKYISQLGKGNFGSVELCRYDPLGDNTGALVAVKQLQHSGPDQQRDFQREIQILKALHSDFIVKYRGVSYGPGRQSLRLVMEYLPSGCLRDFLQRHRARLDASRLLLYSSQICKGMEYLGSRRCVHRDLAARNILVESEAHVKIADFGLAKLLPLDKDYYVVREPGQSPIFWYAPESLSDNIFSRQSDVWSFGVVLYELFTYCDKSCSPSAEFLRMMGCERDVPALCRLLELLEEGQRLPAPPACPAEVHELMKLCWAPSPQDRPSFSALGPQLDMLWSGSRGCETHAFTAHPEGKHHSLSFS
Briefly: JAK3 Inhibition Assay, 33P incorporation. Particulars: enzyme inhibition data (Ki), Table 11. In kind it is biochemical. The gist of the method: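 33P incorporation into 1 μM poly(Glu)4Tyr was counted after TCA stop and glass fiber filtration. The 20 min reaction ran at 25 °C with 1 nM JAK3 and 5 μM ATP (200 uCi/μmole). Buffer was 100 mM HEPES pH 7.4, 10 mM MgCl2, 25 mM NaCl, 1 mM DTT, 0.01% BSA.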

Experiment [2] has as its target T2, Itk (Homo sapiens, UniProt Q08881).
T2 sequence (Q08881 1-620): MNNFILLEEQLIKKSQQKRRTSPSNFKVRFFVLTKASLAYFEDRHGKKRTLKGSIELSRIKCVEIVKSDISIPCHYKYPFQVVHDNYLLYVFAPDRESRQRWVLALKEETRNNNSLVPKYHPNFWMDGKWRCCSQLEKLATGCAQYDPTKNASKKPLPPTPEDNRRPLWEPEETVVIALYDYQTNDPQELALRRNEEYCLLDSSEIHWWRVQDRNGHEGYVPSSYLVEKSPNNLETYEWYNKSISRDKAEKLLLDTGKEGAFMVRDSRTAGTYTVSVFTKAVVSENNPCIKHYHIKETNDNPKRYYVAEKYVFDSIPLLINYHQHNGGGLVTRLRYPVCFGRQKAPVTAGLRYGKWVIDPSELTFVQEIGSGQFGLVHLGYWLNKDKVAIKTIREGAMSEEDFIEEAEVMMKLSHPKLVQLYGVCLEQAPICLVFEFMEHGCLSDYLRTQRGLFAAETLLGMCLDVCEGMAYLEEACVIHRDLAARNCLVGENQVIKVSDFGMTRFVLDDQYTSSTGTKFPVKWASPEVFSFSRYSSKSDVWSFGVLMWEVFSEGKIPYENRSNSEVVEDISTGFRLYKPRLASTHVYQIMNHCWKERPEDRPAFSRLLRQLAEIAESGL
Nature of the experiment: ITK Inhibition Assay (Radiometric), radioactive-phosphate incorporation. In kind it is biochemical. Particulars: enzyme inhibition data (Ki), Table 11; radiometric or UV assay not stated. The gist of the method:
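Radiometric 33P incorporation into SAM68 peptide (D332-443) with filter capture and scintillation counting; 10 min pre-incubation then 10 min reaction at 25° C. IC50 format: 30 nM Itk, 15 μM ATP, 2 μM peptide, HEPES pH 7.5. Ki(app) format: 50 nM Itk, 7.5 μM ATP, 3 μM peptide, MOPS pH 7.0.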

Usually Ki stands for a dissociation constant, usually derived from enzyme kinetics or from competition with a known ligand. `CSc1cc(-c2c(N)nn3cc(C)cnc23)ncn1` [Compound V-281]: the Ki in experiment [1] and in experiment [2] was 0.5 to 5 µM throughout.

In the case of `Cc1cnc2c(-c3cc(NC4CCN(Cc5ccccc5)CC4)ncn3)c(N)nn2c1` [Compound V-285], the inhibition constant (Ki) in experiment [1] and in experiment [2] was 0.5 to 5 µM in each case.

With `Cc1cnc2c(-c3cc(NC4CCN(Cc5ccccc5)C4)ncn3)c(N)nn2c1` (stereo not drawn) [Compound V-286], the inhibition constant Ki in experiment [1] and in experiment [2] was 0.5 to 5 µM in each case.

As to `Cc1cnc2c(-c3cc(NC4CC4)ncn3)c(N)nn2c1` [Compound V-289], the Ki in experiment [1] and in experiment [2] was 0.5 to 5 µM in each case.

Consider `Cc1cnc2c(-c3cc(NC4CCC4)ncn3)c(N)nn2c1` [Compound V-290], for which the Ki in experiment [1] and in experiment [2] was 0.5 to 5 µM in each case.

On to `Cc1cnc2c(-c3cc(NC4CCCCC4)ncn3)c(N)nn2c1` [Compound V-291], for which the Ki in experiment [1] and in experiment [2] was 0.5 to 5 µM in each case.

Turning to `Cc1cnc2c(-c3cc(N[C@H](C)CO)ncn3)c(N)nn2c1` [Compound V-293], the Ki in experiment [1] and in experiment [2] was 0.5 to 5 µM in each case.

For `CC[C@H](C)Nc1cc(-c2c(N)nn3cc(C)cnc23)ncn1` [Compound V-294], the Ki in experiment [1] and in experiment [2] was 0.5 to 5 µM each time.

For the molecule `Cc1cnc2c(-c3cc(N[C@@H](C)CO)ncn3)c(N)nn2c1` [Compound V-295], the Ki in experiment [1] and in experiment [2] was 0.5 to 5 µM in each case.
